B1: miR-148b mimic: miR-148b mimic oligonucleotide; in a particular embodiment has SEQ ID NO: 1, the human precursor miR-148b sequence (nucleic acid)
chain: CAAGCACGAUUAGCAUUUGAGGUGAAGUUCUGUUAUACACUCAGGCUGUGGCUCUCUGAAAGUCAGUGCAUCACAGAACUUUGUCUCGAAAGCUUUCUA
modifications: listed as RNA, chemistry not given here

Key:
Format in all cases: cell-based, human
[1] = tested on: HUVECs; assay: ECIS plasma membrane capacitance analysis; settings: HUVECs knock-down for miR-148b
Protocol: Confluent HUVECs were transfected with controls or miR-148b mimic or anti-miR-148b and, plated on the ECIS chip array (8W1E or 8W10E). The migration speed was calculated in μm/h, capacitance of the plasma membrane is Cm (μF/cm^2) as reported in Giaever, I, and Keese, C R (1991)^29.

[2] = tested on: HUVECs; assay: Gene (qPCR) and protein (Western blot) expression in transfected HUVECs
Protocol: Human umbilical vein ECs (HUVECs; Lonza) were grown in EGM-2 (comprising EBM-2 with growth factors and other supplements) with 2% Foetal Bovine Serum. Confluent HUVECs were treated with 10 ng/ml TNF-α, IL-1β, TGFβ2 (PeproTech); medium and cytokines were changed every two days. SB431542 (Tocris) has been used at the dose of 10 μM. HEK293T cells (ATCC®, CRL-11268) were cultured in D-MEM with 10% FBS (Life Technologies).
Total RNA was extracted using miReasy kit (Qiagen). Real-time quantification to measure miRNAs was performed with the TaqMan miRNA reverse transcription kit and miRNA assay (Life Technology) using Lightcycler 480 (Roche). miRNAs expression was normalized to the U6 […] (snRU6). For mRNA analysis, cDNA was amplified by quantitative real-time PCR (qPCR) and normalized to 18S ribosomal RNA. Each reaction was performed in triplicate. Quantification was performed by the 2^−ΔΔCt method^52. qPCR was used to measure the expression of miR-148b (miR-148b-3p Thermo Fisher Scientific, Cat. #4426961), snRU6 (ThermoFisher Scientific, Cat. #4331182), TGFβ2, SMAD2, CD31, VE-Cadherin, COL1A1, α-SMA, SLUG, VIM, SNAIL, TWIST, ZEB1/2 and 18S rRNA. Primers are pre-designed from Sigma (KiCgStart™ Primers).
Lipofectamine RNAiMAX (Thermo Fisher Scientific) was used to transfect HUVECs with miR-148b mimic, anti-miR-148b and mimic or anti-miR control (25 nM and […], respectively final concentration) or with siRNA targeting SMAD2 (20 nM final concentration), according to the manufacturer's instructions. jetPEI-HUVECs (Polyplus) was used to transfect HUVECs with DNA plasmids. The following functional assays were performed: BrdU incorporation assay using Cell Proliferation colorimetric assay (Roche); Matrigel assay with HUVECs was performed as previously described using BD Matrigel Basement Membrane Matrix (BD Biosciences)^53.
Proteins were extracted from cultured cells or muscles by using ice-cold buffer A (50 mM Hepes, 150 mM NaCl, 1 mM EDTA, 1 mM EGTA, 25 mM NaF, 5 mM NaPPi, 1%Triton, 1% NP40, 1 mM Na3VO4, 0.25% sodium deoxycholate, 0.5 mM Na-orthovanadate, 1 mM benzamidine, 0.1 mM phenylmethylsulfonyl fluoride). Protein concentration was determined using the Bio-Rad Protein Assay Reagent (Bio-Rad Laboratories, UK). Detection of proteins by Western blot analyses was done following separation of whole cell extracts (20 μg) on SDS-polyacrylamide gels. Proteins were transferred to nitrocellulose membranes and probed with the following antibodies: TGFβ2 (Abcam, ab36495, 1:1000), SMAD2 (SantaCruz Biotechnology, Santa Cruz, Calif., USA; #3102, 1:1000), p-SMAD2 (465/467) (Cell Signaling; #3108, 1:1000); CD31 (Abcam., 1:1000), VE-Cadherin (Abcam, ab33168, 1:1000), COL1A1 (Abcam, ab138492, 1:200), FSP-1 (5100A4; Abcam, ab41532, 1:1000), SLUG (Abcam, ab27568, 1:1000), β-actin (Abcam, ab16039, 1:4000), HDAC3 (GeneTex GTX113303, 1:1000) and GAPDH (GeneTex, GT239, 1:1000) (both used as loading control). For detection, the inventors used secondary antibodies conjugated to horseradish peroxidase which were rabbit anti-mouse (Abcam, ab97046, 1:5000) and goat anti-rabbit (Abcam, ab6721, 1:10000). Detection was developed by chemiluminescence reaction (ECL) (Immunoblot, Millipore, 23225).

[3] = tested on: HUVECs; assay: Immunofluorescence of transfected HUVECs; settings: anti-miR, 48 hrs
Protocol: Cells were fixed using 4% paraformaldehyde in PBS at room temperature for 15 min. For intracellular staining, fixed cells were permeabilized using 0.5% Triton X-100 in PBS (Sigma-Aldrich) or 0.1% Saponin in PBS at room temperature for 10 min. The blocking of […] antibody activity was performed using 3% bovine serum albumin (BSA) in PBS for 1 hour. Samples were incubated with antibodies to CD31 (Abcam, ab28364, 1:50), VE-cadherin (Abcam, ab33168, 1:100), FSP-1 (Abcam, ab41532, 1:200) and COL1A1 (Abcam, ab138492, 1:100) in PBS containing 1% BSA at 4° C. overnight. Samples were washed extensively with PBS and incubated with Alexa-Fluor-488-conjugated antibodies to rabbit IgG (Life Technologies, Carlsbad, Calif., #A11070) and Alexa-Fluor-594-conjugated antibodies to rabbit IgG (Life Technologies, Carlsbad, Calif., #A11072) in DAPI with PBS with 1% BSA at room temperature for 1 h. Image analysis was performed on Zeiss LSM 780 confocal microscope.

[4] = tested on: 3′UTR of SMAD2; assay: Luciferase reporter assay, wild-type 3′UTR of SMAD2; settings: 48 h post-co-transfection, HEK293T cells or HUVECs; mutation of the binding sites restored it
From the text: Luciferase assay has been performed as previously described^53. TGFB2 3′-UTR and SMAD2 3′-UTR vectors were cloned in pMIR-Reporter (Life Technology). Primers are used for the cloning are: TGFβ2 3′UTR: Forward 5′-[…]-3′ (SEQ ID NO: 7), Reverse 5′-[…]-3′ (SEQ ID NO: 8); SMAD2 3′UTR: Forward 5′-[…]-3′ (SEQ ID NO: 9), Reverse 5′-[…]-3′ (SEQ ID NO: 10). Primers for 3′UTR mutation: TGFB2: Forward […] (SEQ ID NO: 11) and Reverse […] (SEQ ID NO: 12); SMAD2 Forward […] (SEQ ID NO: 13) and Reverse […] (SEQ ID NO: 14). Luciferase constructs were transfected into HEK293T cells or HUVECs together with miR-148b mimics or p-SV-beta-Gal control vector. Cells were cultured for 48 h and assayed with the Luciferase and β-Galactosidase Reporter Assay Systems (Promega). Luciferase values were normalized to protein concentration and β-galactosidase activity.

Row | Molecule | membrane capacitance (Cm) [1] | expression of target genes TGFB2 and SMAD2 (mRNA) ([2]; anti-miR 75 mM, 48 hrs) | CD31 and VE-cadherin (Western blot) ([2]; anti-miR, 48 hrs) | SLUG (Western blot) ([2]; anti-miR, 48 hrs) | SLUG expression (mRNA) ([2]; anti-miR, 48 hrs) | TGFB2, SMAD2 and its phosphorylation (Western blot) ([2]; anti-miR, 48 hrs) | expression of CD31 and VE-Cadherin (mRNA) ([2]; anti-miR, 48 hrs) | expression of COL1A1 and FSP-1 (mRNA) ([2]; anti-miR, 48 hrs) | mesenchymal markers COL1A1, FSP-1 (Western blot) ([2]; anti-miR, 48 hrs) | α-SMA or vimentin (VIM) levels ([2]; anti-miR, 48 hrs) | CD31 and VE-cadherin immunoreactivity [3] | COL1A1 and FSP-1 immunoreactivity [3] | rounded/cobblestone morphology [3] | luciferase activity, 3′-UTR-SMAD2 reporter [4] | target gene (TGFB2, SMAD2) mRNA ([2]; mimic 25 nM) | target gene (TGFB2, SMAD2) protein levels ([2]; mimic 25 nM, Western blot) | expression of ACVR1 and ROCK1 ([2]; mimic transfection)
1 | anti-miR-148b: miR-148b inhibitor oligonucleotide; suitable inhibitor: hsa-miR-148b-3p miRCURY LNA inhibitor, CAAAGTTCTGTGATGCACTG (SEQ ID NO: 6) (commercial miRCURY LNA inhibitor, LNA positions not given here) | increased | increased | suppression | up-regulation | strong up-regulation | upregulation | decreased | increased | appearance | without detectable changes | pronounced decrease | increase | lost | – | – | – | –
2 | B1 | – | – | – | – | – | – | – | – | – | – | – | – | – | decreased luciferase activity | reduced | reduced | did not affect

— US20220193111A1, “Method of Treatment” (The University Court of the University of Edinburgh, priority 2018, published 2022)
